Experimental data as given in patent publication US20230286973A1, “PROTEIN SECRETION INHIBITORS” (KEZAR LIFE SCIENCES, priority 2020, published 2023).
Values joined by “and” are separate entries in the source; they are usually repeats but may differ in a detail not shown here. Equal entries are not always repeated.

What was measured:
[1] = tested on: multiple myeloma cell line U266B1; assay: U266 Cell Viability Assay; type: cell-based, human; settings: U266B1 cells, Celltiter-Glo
Procedure, shortened: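 Steps: culture in RPMI 1640 plus 10% FBS and 2 mM glutamine; plate and add compound dilutions; incubate 48 hours at 37° C., 5% CO2; add CellTiter-Glo and quantify luciferase signal.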

[2] = tested on: HER3-ss+4aa/Gaussia Luciferase; assay: Dox-Induced Her3-ss-Gluc Assay; type: cell-based; settings: 24 hr Dox induction; 293FRT/TO cells; read-out: 24 hr Dox Inducible Her3(ss + 4)Gluc 293FRT/TO: Mean IC50
Procedure, shortened: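 Cells were seeded a day ahead, then given compound diluted in DMSO/media with doxycycline to induce expression of the HER3 signal sequence (+4 aa)–Gaussia luciferase fusion. Incubation was at 37° C., 5% CO2, in a stable Flp-In 293 T-REx line.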

[3] = Liver Microsome Stability Assay (monkey); settings: monkey liver microsomes, with NADPH, 1.0 uM compound
Experimental: (§1) Stability of a compound was assessed in the presence of liver microsomes from various sources—mouse, rat, monkey and human liver microsomes. 1.0 uM compound, 0.4% DMSO in 0.1 M Potassium Phosphate with 1.0 mg/mL liver microsomes, were incubated at 37° C. with or without 1 mM NADPH. The samples were quenched at 0, and 30 minutes.

[4] = Liver Microsome Stability Assay (mouse); settings: mouse liver microsomes, with NADPH, 1.0 uM compound
Experimental: as §1

[5] = tested on: TNFα-FL/Gaussia Luciferase; assay: Dox Induced TNFα-FL-Gluc Assay; type: cell-based; settings: for IC50: 24 hr Dox induction, 293FRT/TO cells, read-out: 24 hr Dox Inducible TNFaFLGluc 293FRT/TO: Mean IC50; for 24 hr Dox Inducible TNFaFLGluc 293FRT/TO: TNF/PD1: ratio of TNFaFLGluc IC50 to PD1ssGluc IC50
Procedure, shortened: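 Stereoisomer mixtures were tested where stereochemistry is not drawn. Induction used doxycycline added together with compound dilutions in DMSO/media to Flp-In 293 T-REx cells carrying a T-REx-regulated TNFα (aa 1-233)-Gaussia luciferase construct, then incubated at 37 °C, 5% CO2.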

[6] = Liver Microsome Stability Assay (rat); settings: rat liver microsomes, with NADPH, 1.0 uM compound
Experimental: as §1

[7] = tested on: PD1-ss+10aa/Gaussia Luciferase; assay: Dox-Induced PD1-ss-Gluc Assay; type: cell-based; settings: 24 hr Dox induction; 293FRT/TO cells; read-out: 24 hr Dox Inducible PD1ssGluc 293FRT/TO: Mean IC50
Procedure, shortened: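 Flp-In 293 T-REx cells stably carrying a doxycycline-inducible Gaussia luciferase fused to the PD1 signal sequence plus 10 aa were plated the day before. Compound dilutions in DMSO/media containing doxycycline were then added and incubated at 37 °C, 5% CO2. Data for undefined stereochemistry refer to stereoisomer mixtures.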

[8] = tested on: IL-2-FL/Gaussia Luciferase; assay: Dox Induced IL2-FL-Gluc Assay; type: cell-based; settings: for IC50: 24 hr Dox induction, 293FRT/TO cells, read-out: 24 hr Dox Inducible IL2FLGluc 293FRT/TO: Mean IC50; for 24 hr Dox Inducible IL2FLGluc 293FRT/TO: IL2/PD1: ratio of IL2FLGluc IC50 to PD1ssGluc IC50
Procedure, shortened: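 Cells are plated one day ahead, then receive compound dilutions in DMSO/media with doxycycline and incubate at 37° C, 5% CO2. They are Flp-In 293 T-REx cells expressing a full-length IL-2 (amino acids 1-153)–Gaussia luciferase fusion under T-REx control.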

[9] = tested on: multiple myeloma cell line NCI-H929; assay: H929 Cell Viability Assay; type: cell-based, human; settings: NCI-H929 cells, Celltiter-Glo
Procedure, shortened: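 Luminescent ATP detection (CellTiter-Glo) after 48 hours of compound exposure measures viability. Cells were plated in RPMI 1640 containing 10% fetal bovine serum and kept at 37° C under 5% CO2.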

[10] = Liver Microsome Stability Assay (human); settings: human liver microsomes, with NADPH, 1.0 uM compound
Experimental: as §1

Compound	EC50 ([1]; Homo sapiens, U-266, 48 h) [nM]	IC50 [2]	Liver Microsome Stability (Multiple Species): Monkey - % Remaining after 30 min w/NADPH [3]	Liver Microsome Stability (Multiple Species): Mouse - % Remaining after 30 min w/NADPH [4]	IC50 [5]	24 hr Dox Inducible TNFaFLGluc 293FRT/TO: TNF/PD1 [5]	Liver Microsome Stability (Multiple Species): Rat - % Remaining after 30 min w/NADPH [6]	IC50 [7]	IC50 [8]	24 hr Dox Inducible IL2FLGluc 293FRT/TO: IL2/PD1 [8]	EC50 ([9]; Homo sapiens, NCI-H929, 48 h) [nM]	Liver Microsome Stability (Multiple Species): Human - % Remaining after 30 min w/NADPH [10]	EC50 ([1]; 48 hr) [nM]	EC50 ([9]; 48 hr) [nM]
CC(=O)N1CC(Oc2ccc(N3CCC[C@@H]3c3csc(NC(=O)c4cccn4Cc4ccnc(F)c4)n3)cc2)C1 [Compound A81, (R)-N-(4-(1-(4-((1-acetylazetidin-3-yl)oxy)phenyl)pyrrolidin-2-yl)thiazol-2-yl)-1-((2-fluoropyridin-4-yl)methyl)-1H-pyrrole-2-carboxamide]	> 25000	23.7 nM	8.77%	39.5%	143 nM	10.2	68.9%	14 nM	41.5 nM	3	679	12.8%		
CC(=O)N1CC=C(Oc2ccc(N3CCC[C@@H]3c3csc(NC(=O)c4cccn4Cc4ccnc(F)c4)n3)cc2)CC1 [Compound A82, (R)-N-(4-(1-(4-((1-acetyl-1,2,3,6-tetrahydropyridin-4-yl)oxy)phenyl)pyrrolidin-2-yl)thiazol-2-yl)-1-((2-fluoropyridin-4-yl)methyl)-1H-pyrrole-2-carboxamide]	> 25000	210 nM	0.16%	0.84%	653 nM	8.31	15.3%	78.6 nM	249 nM	3.2	5660	3.95%		
CC(=O)N1CCC[C@@H](Oc2ccc(N3CCC[C@@H]3c3csc(NC(=O)c4cccn4Cc4ccnc(F)c4)n3)cc2)C1 [Compound A83]	> 25000	249 nM	0.16%	0.55%	1530 nM	18.6	16.6%	82.1 nM	232 nM	2.8	4000	0.64%		
CC(=O)N1CCC[C@H](Oc2ccc(N3CCC[C@@H]3c3csc(NC(=O)c4cccn4Cc4ccnc(F)c4)n3)cc2)C1 [Compound A84, N-(4-((R)-1-(4-(((S)-1-acetylpiperidin-3-yl)oxy)phenyl)pyrrolidin-2-yl)thiazol-2-yl)-1-((2-fluoropyridin-4-yl)methyl)-1H-pyrrole-2-carboxamide]	> 25000	62.6 nM	0.73%	1%	310 nM	7.61	2.51%	40.7 nM	87 nM	2.1	1050	0.5%		
O=C(Nc1nc([C@H]2CCCN2c2ccc(OC3CNC3)cc2)cs1)c1cccn1Cc1ccnc(F)c1 [Compound A85, (R)-N-(4-(1-(4-(azetidin-3-yloxy)phenyl)pyrrolidin-2-yl)thiazol-2-yl)-1-((2-fluoropyridin-4-yl)methyl)-1H-pyrrole-2-carboxamide]	10300	566 nM and 543 nM	49% and 62.5%	57.7% and 62.5%	21600 nM and > 25000 nM	75.9 and > 85.1	90.7% and 99.6%	285 nM and 294 nM	2110 nM and 1470 nM	7.4 and 5	6260	52.8% and 65.2%	7380	5290
O=C(Nc1nc([C@H]2CCCN2c2ccc(O[C@@H]3CCCNC3)cc2)cs1)c1cccn1Cc1ccnc(F)c1 [Compound A87, 1-((2-fluoropyridin-4-yl)methyl)-N-(4-((R)-1-(4-(((R)-piperidin-3-yl)oxy)phenyl)pyrrolidin-2-yl)thiazol-2-yl)-1H-pyrrole-2-carboxamide]	8830	1150 nM	32.6%	75.6%	21500 nM	33.8	61.8%	636 nM	2580 nM	4.1	6310	51.1%		
O=C(Nc1nc([C@H]2CCCN2c2ccc(O[C@H]3CCCNC3)cc2)cs1)c1cccn1Cc1ccnc(F)c1 [Compound A88, 1-((2-fluoropyridin-4-yl)methyl)-N-(4-((R)-1-(4-(((S)-piperidin-3-yl)oxy)phenyl)pyrrolidin-2-yl)thiazol-2-yl)-1H-pyrrole-2-carboxamide]	11500	1210 nM	3.2%	71.7%	11000 nM	11.5	76%	952 nM	3330 nM	3.5	7330	57.6%		
